The subject of one series is Sindbis virus. The experiment in a line: Effective concentration resulting in a 50% reduction in virus production in BHK cells. The format is functional, organism-based.
Series [1] can be described thus: Cytotoxic concentration for 50% growth inhibition of uninfected BHK cells. Format: cell-based, Mesocricetus auratus. The settings on record: hamster.

pEC50: −log10 of the molar value.

For orientation: pEC50 means the EC50 on a negative log10 scale, so that one unit is a factor of ten. Read a low pEC50 as a large EC50. What is called CC50 is the concentration that lowers cell viability or growth by half. In the series on Sindbis virus, `C(C[C@@H]1COCCO1)C[C@@H]1COCCO1` gave a pEC50 of 4.40. For the same compound, the half-maximal cytotoxic concentration (CC50) in series [1] is > 1000 µM.
For `c1ccc(CCCC[C@@H]2COCCO2)cc1`, the negative logarithm of the EC50 (pEC50) in the series with Sindbis virus was < 4.00. For the same compound, half-maximal cytotoxicity in series [1] (CC50) was put at 600 µM.
For `O=C(C[C@@H]1COCCO1)C[C@@H]1COCCO1` the same measures were < 4.00 and > 1000 µM.
The corresponding values for `OC[C@@H]1COCCO1` are 6.00 and > 1000 µM.

The record behind these values is ChEMBL document CHEMBL1139642, “Design, synthesis, and evaluation of dioxane-based antiviral agents targeted against the Sindbis virus capsid protein” (Bioorg Med Chem Lett, 2005).
